Here are results for twelve compounds from ChEMBL document CHEMBL1201862, “PubChem BioAssay data set” (2004).

Each structure is given as a SMILES string.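 Following 48 hours of exposure in 96-well plates, responses at five concentrations were used to interpolate endpoints linearly. GI50 marks 50% less growth.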 Active and inactive are the calls of the source. Rule as the data show it: active = GI50 up to about 1.1 µM and inactive = higher. Bounds are passed on as bounds.

Test systems include T47D; COLO 205; PC-3; SW-620; HCT-15; NCI-H23; NCI-H522; SK-MEL-5; OVCAR-4; KM12; DU-145; NCI-H460; A498; HCT-116; SNB-75; ACHN; UACC-257; HOP-92; MCF7.
Common to all, as to experiment: NCI anticancer screen, dose series, 48 h

For the compound `COc1ccc(NC(=S)NN=C(C)c2cccc(C(C)=NNC(=S)Nc3ccc(OC)cc3)n2)cc1`, the GI50 was > 100 µM (inactive) in the assay with T47D; 4.45 µM (inactive) with COLO 205; 27.2 µM (inactive) in the assay on PC-3; 64.7 µM (inactive) in the assay with SW-620; 10.9 µM with HCT-15; 64 µM (inactive) in the assay with NCI-H23. The GI50 in the assay with NCI-H522 was 33.8 µM (inactive); with SK-MEL-5, 0.995 µM (active); with OVCAR-4, 7.13 µM (inactive); with KM12 it was 6.44 µM (inactive); in the assay with DU-145 it was > 100 µM (inactive); in the assay with NCI-H460, 12.4 µM (inactive). For the same compound, the GI50 in the assay on A498 was > 100 µM (inactive); in the assay with HCT-116 it was 11.6 µM (inactive); in the assay with SNB-75 it was 3.9 µM (inactive); in the assay with ACHN it was 4.74 µM (inactive); with UACC-257, > 100 µM (inactive); in the assay with HOP-92, 45.6 µM (inactive).
As for `O=C1[C@H]2ON(c3ccccc3)C(c3ccc(Cl)cc3Cl)[C@H]2C(=O)N1c1ccc(Cc2ccc(N3C(=O)[C@@H]4ON(c5ccccc5)C(c5ccc(Cl)cc5Cl)[C@@H]4C3=O)cc2)cc1` (stereo partly drawn), the GI50 in the assay with COLO 205 is > 100 µM (inactive); in the assay with SW-620, > 100 µM (inactive); with HCT-15, greater than 100 µM; in the assay with NCI-H23, > 100 µM (inactive); in the assay with NCI-H522, > 100 µM (inactive); in the assay on SK-MEL-5 it was 73.1 µM (inactive). Moreover, the GI50 in the assay with OVCAR-4, with KM12, with NCI-H460, with A498, with HCT-116 and in the assay on SNB-75 was > 100 µM (inactive) in each case. Also, the GI50 in the assay with ACHN, in the assay with UACC-257 and in the assay on HOP-92 was > 100 µM (inactive) throughout.
`COC(=O)C1CCC(=O)N1C(c1ccc(OC)cc1)c1cc(OC)c(OC)c(OC)c1` (stereo not drawn): the GI50 is > 100 µM (inactive) in the assay on T47D; 0.292 µM (active) in the assay on COLO 205; 0.288 µM (active) with PC-3; 0.384 µM (active) in the assay on SW-620; 0.381 µM in the assay with HCT-15; 0.553 µM (active) in the assay on NCI-H23. Further, the GI50 in the assay with NCI-H522 was 0.047 µM (active); in the assay on SK-MEL-5, 0.252 µM (active); in the assay with KM12, 0.146 µM (active); in the assay on MCF7, 0.307 µM (active); in the assay with DU-145 it was 0.306 µM (active); in the assay on NCI-H460 it was 0.33 µM (active). Further, the GI50 in the assay with A498 is 0.705 µM (active); with HCT-116 it was 0.324 µM (active); in the assay on SNB-75 it was 0.389 µM (active); with ACHN, 0.52 µM (active); in the assay on HOP-92, > 100 µM (inactive).
With `CCOP(=O)(OCC)C(Nc1ccc(Cl)cc1)c1ccc(F)cc1` (stereo not drawn), the GI50 with T47D was 16.6 µM (inactive); in the assay with COLO 205, 29.4 µM (inactive); with SW-620, > 10 µM (inactive); in the assay with HCT-15, 26.7 µM; with NCI-H23, 16.3 µM (inactive); in the assay with NCI-H522 it was 20.3 µM (inactive). Besides, the GI50 in the assay on SK-MEL-5 was 17.3 µM (inactive); with OVCAR-4 it was 36.2 µM (inactive); in the assay with KM12, 31 µM (inactive); in the assay on DU-145 it was 24.5 µM (inactive); with NCI-H460, 19.5 µM (inactive); in the assay with A498 it was 18.5 µM (inactive). For the same compound, the GI50 with HCT-116 is 19.2 µM (inactive); with SNB-75 it was 20.5 µM (inactive); in the assay with ACHN, 28.4 µM (inactive); in the assay with UACC-257 it was 18.5 µM (inactive); in the assay on HOP-92, 22 µM (inactive).
On to `NC(CC(=O)OCc1ccccc1)C(=O)OCc1ccccc1` (stereo not drawn), for which the GI50 with T47D is > 100 µM (inactive); in the assay on COLO 205 it was > 100 µM (inactive); with PC-3, > 100 µM (inactive); in the assay on SW-620, > 100 µM (inactive); with HCT-15 it was greater than 100 µM; in the assay with NCI-H23 it was > 100 µM (inactive). For the same compound, the GI50 with NCI-H522, in the assay with SK-MEL-5, in the assay on KM12, in the assay on MCF7, with DU-145 and in the assay on NCI-H460 was > 100 µM (inactive) throughout. Besides, the GI50 in the assay on HCT-116, in the assay on ACHN and in the assay on UACC-257 was > 100 µM (inactive) throughout.
In the case of `COc1ccc(NC(=O)CC(=O)N2N=C(N(c3ccccc3)c3ccccc3)CC2c2ccccc2)cc1` (stereo not drawn), the GI50 is > 100 µM (inactive) with T47D; > 100 µM (inactive) in the assay on COLO 205; > 100 µM (inactive) in the assay on PC-3; > 100 µM (inactive) in the assay with SW-620; greater than 100 µM in the assay with HCT-15; > 100 µM (inactive) with NCI-H23. Further, the GI50 with NCI-H522, in the assay on OVCAR-4, in the assay with KM12, in the assay with MCF7, in the assay on DU-145 and in the assay on A498 was > 100 µM (inactive) in each case. Moreover, the GI50 in the assay on HCT-116, in the assay on SNB-75, with ACHN, in the assay on UACC-257 and in the assay on HOP-92 was > 100 µM (inactive) in each case.
Turning to `CCOC(=O)C(=CNC(=S)c1ccncc1)C(=O)OCC`, the GI50 is > 100 µM (inactive) in the assay on T47D; > 100 µM (inactive) in the assay on COLO 205; > 100 µM (inactive) in the assay with PC-3; > 100 µM (inactive) in the assay with SW-620; greater than 100 µM in the assay with HCT-15; > 100 µM (inactive) in the assay with NCI-H23. Besides, the GI50 in the assay on NCI-H522, with SK-MEL-5, with OVCAR-4, in the assay on KM12, in the assay with MCF7 and in the assay on DU-145 was > 100 µM (inactive) in each case. Moreover, the GI50 with NCI-H460 was > 100 µM (inactive); with A498, > 100 µM (inactive); in the assay with HCT-116, > 100 µM (inactive); with SNB-75, 25.6 µM (inactive); in the assay on ACHN, > 100 µM (inactive); with UACC-257, > 100 µM (inactive). Further, the GI50 with HOP-92 was > 100 µM (inactive).
`CCOC(=O)C(Cc1ccc2c(c1)CCC2)(Cc1ccc2c(c1)CCC2)C(=O)OCC`: the GI50 is 34.2 µM (inactive) in the assay on T47D; 32.5 µM (inactive) with PC-3; > 100 µM (inactive) with SW-620; 61.7 µM in the assay with HCT-15; 98.4 µM (inactive) with NCI-H23; 29.9 µM (inactive) in the assay on NCI-H522. Also, the GI50 with SK-MEL-5 is 33.8 µM (inactive); in the assay with OVCAR-4, > 100 µM (inactive); in the assay with MCF7 it was 52.6 µM (inactive); in the assay with DU-145, > 100 µM (inactive); in the assay with NCI-H460, 51.3 µM (inactive); with A498, > 100 µM (inactive). Also, the GI50 was 31.7 µM (inactive) with HCT-116; > 100 µM (inactive) in the assay on SNB-75; > 100 µM (inactive) with ACHN; 34.7 µM (inactive) in the assay on UACC-257; 26.9 µM (inactive) with HOP-92.
Regarding `CSc1c([S+](C)[O-])c2ccccc2n1C` (stereo not drawn), the GI50 in the assay with T47D is > 100 µM (inactive); in the assay on COLO 205, > 100 µM (inactive); with PC-3, > 100 µM (inactive); in the assay with SW-620 it was > 100 µM (inactive); in the assay with HCT-15, greater than 100 µM; in the assay on NCI-H23, > 100 µM (inactive). In addition, the GI50 in the assay on NCI-H522 is 0.0142 µM (active); with SK-MEL-5, > 100 µM (inactive); in the assay on OVCAR-4, > 100 µM (inactive); in the assay with KM12 it was > 100 µM (inactive); in the assay on MCF7, > 100 µM (inactive); in the assay with DU-145, > 100 µM (inactive). Besides, the GI50 is > 100 µM (inactive) in the assay with NCI-H460; > 100 µM (inactive) in the assay with A498; > 100 µM (inactive) with HCT-116; 10.8 µM (inactive) with SNB-75; > 100 µM (inactive) in the assay with ACHN; > 100 µM (inactive) in the assay with UACC-257.
For `O=C1CCCCC1S(=O)(=O)c1ccccc1` (stereo not drawn), the GI50 is > 100 µM (inactive) in the assay with COLO 205; > 100 µM (inactive) in the assay on SW-620; greater than 100 µM in the assay with HCT-15; > 100 µM (inactive) with NCI-H23; > 100 µM (inactive) in the assay on NCI-H522; > 100 µM (inactive) in the assay on SK-MEL-5. For the same compound, the GI50 with OVCAR-4, in the assay on KM12, with NCI-H460, in the assay on A498, in the assay on HCT-116 and in the assay with SNB-75 was > 100 µM (inactive) each time. The GI50 in the assay with ACHN, in the assay on UACC-257 and in the assay on HOP-92 was > 100 µM (inactive) throughout.
Take `C/C(=N\N=C(N)N)c1sc(-c2nc(C)c(/C(C)=N/N=C(N)N)s2)nc1C`: the GI50 in the assay with COLO 205 was > 52.5 µM (inactive); in the assay with SW-620, > 100 µM (inactive); in the assay with HCT-15 it was greater than 46 µM; in the assay with NCI-H23, > 100 µM (inactive); in the assay on NCI-H522, 36 µM (inactive); with SK-MEL-5, > 100 µM (inactive). The GI50 was > 85.5 µM (inactive) in the assay on OVCAR-4; > 36.2 µM (inactive) in the assay on KM12; > 62.5 µM (inactive) in the assay on NCI-H460; > 100 µM (inactive) with A498; > 100 µM (inactive) in the assay on HCT-116; > 84.3 µM (inactive) in the assay on SNB-75. Further, the GI50 in the assay on ACHN, with UACC-257 and with HOP-92 was > 100 µM (inactive) each time.
In the case of `CCCCCCCCCCCCCCCCOCC(CN(C)CCN(C)C)OCCCCCCCCCCCCCCCC` (stereo not drawn), the GI50 in the assay with COLO 205 was > 100 µM (inactive); in the assay on SW-620 it was > 100 µM (inactive); in the assay on HCT-15, greater than 100 µM; in the assay on NCI-H23, > 100 µM (inactive); in the assay on NCI-H522, > 100 µM (inactive); in the assay with SK-MEL-5, > 100 µM (inactive). Further, the GI50 in the assay on OVCAR-4, in the assay on KM12, in the assay on NCI-H460, in the assay on A498, in the assay with HCT-116 and in the assay with SNB-75 was > 100 µM (inactive) each time. Also, the GI50 in the assay with ACHN, in the assay with UACC-257 and in the assay on HOP-92 was > 100 µM (inactive) throughout.
